Test results published in patent publication US20260297106A1, “SPIROCYCLIC SUBSTITUTED OXOISOINDOLINYL PIPERIDINE-2,6-DIONE COMPOUND” (Bristol-Myers Squibb Company, priority 2023, published 2026).
Like-named read-outs stand apart in the source and are kept apart here.

What was measured:
[1] = target: IKZF1 Ikaros (Homo sapiens, UniProt Q13422+Q96SW2); test: Human CD8+ T Cell Reprogramming Assay (IKZF1 Ikaros); type: cell-based; parameters: Cryopreserved healthy donor human peripheral blood mononuclear cells; endogenous in cells; host or cells: primary human PBMC, CD8+ T cells read by flow cytometry
Chain of IKZF1 Ikaros (Q13422 whole entry): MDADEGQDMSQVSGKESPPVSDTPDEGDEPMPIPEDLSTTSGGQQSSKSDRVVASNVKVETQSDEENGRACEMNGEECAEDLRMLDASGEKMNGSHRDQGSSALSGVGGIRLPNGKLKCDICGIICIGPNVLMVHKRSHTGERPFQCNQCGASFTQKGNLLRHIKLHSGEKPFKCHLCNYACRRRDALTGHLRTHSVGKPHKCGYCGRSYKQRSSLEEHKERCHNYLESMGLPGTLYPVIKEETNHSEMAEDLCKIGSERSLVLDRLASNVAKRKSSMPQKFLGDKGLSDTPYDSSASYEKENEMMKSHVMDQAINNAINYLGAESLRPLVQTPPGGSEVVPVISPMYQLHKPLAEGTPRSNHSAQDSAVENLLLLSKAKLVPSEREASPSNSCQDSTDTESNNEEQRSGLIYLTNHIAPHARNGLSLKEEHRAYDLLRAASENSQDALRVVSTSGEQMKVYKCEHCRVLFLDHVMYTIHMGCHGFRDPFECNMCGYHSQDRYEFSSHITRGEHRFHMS
Chain of IKZF1 Ikaros (Q96SW2 whole entry): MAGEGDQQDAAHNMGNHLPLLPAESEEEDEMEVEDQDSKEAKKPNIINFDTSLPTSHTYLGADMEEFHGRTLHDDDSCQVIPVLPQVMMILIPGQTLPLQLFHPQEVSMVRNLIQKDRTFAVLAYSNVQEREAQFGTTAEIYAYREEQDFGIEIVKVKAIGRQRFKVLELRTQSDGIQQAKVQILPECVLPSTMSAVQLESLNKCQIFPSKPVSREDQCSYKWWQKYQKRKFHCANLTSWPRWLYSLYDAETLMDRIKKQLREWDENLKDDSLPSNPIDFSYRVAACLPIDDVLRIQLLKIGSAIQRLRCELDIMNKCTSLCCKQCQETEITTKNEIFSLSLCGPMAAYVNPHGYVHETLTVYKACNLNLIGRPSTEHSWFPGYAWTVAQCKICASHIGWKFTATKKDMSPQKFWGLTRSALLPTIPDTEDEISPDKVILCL
Chain of IKZF1 Ikaros (Q16531 whole entry partner): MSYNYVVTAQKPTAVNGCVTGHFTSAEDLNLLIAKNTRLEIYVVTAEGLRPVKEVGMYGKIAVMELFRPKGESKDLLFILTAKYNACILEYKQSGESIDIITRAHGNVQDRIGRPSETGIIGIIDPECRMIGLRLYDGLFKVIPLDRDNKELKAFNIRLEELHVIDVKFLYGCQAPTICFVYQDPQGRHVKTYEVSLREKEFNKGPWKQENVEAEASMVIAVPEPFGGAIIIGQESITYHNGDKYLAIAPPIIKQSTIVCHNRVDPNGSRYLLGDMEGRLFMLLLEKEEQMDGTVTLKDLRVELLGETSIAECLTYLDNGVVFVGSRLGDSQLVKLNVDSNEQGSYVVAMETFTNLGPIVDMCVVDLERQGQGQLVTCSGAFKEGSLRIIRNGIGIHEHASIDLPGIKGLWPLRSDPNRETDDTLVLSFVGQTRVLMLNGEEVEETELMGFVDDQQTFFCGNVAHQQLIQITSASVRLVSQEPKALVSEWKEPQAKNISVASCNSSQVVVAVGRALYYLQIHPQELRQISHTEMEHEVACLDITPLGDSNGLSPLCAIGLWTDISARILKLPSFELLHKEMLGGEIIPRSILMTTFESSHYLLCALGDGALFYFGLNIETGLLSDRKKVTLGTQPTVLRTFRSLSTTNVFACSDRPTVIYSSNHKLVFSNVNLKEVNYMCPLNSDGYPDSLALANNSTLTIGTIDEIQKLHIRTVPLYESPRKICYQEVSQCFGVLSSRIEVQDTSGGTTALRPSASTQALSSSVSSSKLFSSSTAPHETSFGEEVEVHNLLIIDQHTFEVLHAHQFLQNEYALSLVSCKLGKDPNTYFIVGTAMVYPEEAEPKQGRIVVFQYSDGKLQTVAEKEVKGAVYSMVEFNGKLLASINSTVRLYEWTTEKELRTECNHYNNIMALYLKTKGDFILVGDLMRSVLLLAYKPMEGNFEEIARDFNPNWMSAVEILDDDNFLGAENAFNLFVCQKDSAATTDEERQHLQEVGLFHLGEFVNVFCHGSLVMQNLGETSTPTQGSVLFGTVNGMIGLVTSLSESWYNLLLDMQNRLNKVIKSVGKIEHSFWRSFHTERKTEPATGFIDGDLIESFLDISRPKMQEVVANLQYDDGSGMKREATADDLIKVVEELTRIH
Method: Cryopreserved healthy donor human peripheral blood mononuclear cells (PBMC) from healthy donors were thawed and seeded at 500,000 cells/well of 96-well round bottom plates in RPMI 1640 media (Gibco) supplemented with 10% FBS, Pen/Strep (Gibco), MEM-NEAA (Gibco), and sodium pyruvate (Gibco). Cells were treated with titrated doses of compound for 24 hours at 37° C., 5% CO2 before analyzing by flow cytometry.
For flow cytometry staining, cells were washed twice with flow cytometry staining buffer (Thermo Fisher) and incubated in Human Tru-stain Fc block (Biolegend) for 10 minutes before adding eFluor780 viability dye (Thermo Fisher) and surface marker antibody cocktail containing LD-eFluor780, CD3-BUV-395, CD4-BUV805, CD8-FITC, and CD25-BV605 for 30 minutes at 4° C. Cells were then fixed and permeabilized by incubation with permeabilization buffer (eBioscience FoxP3 buffer set 00-5523-00) for 30 minutes at 4° C. as per the kit manufacturer's instructions. Cells were washed twice with the Perm/Wash buffer supplied in the kit as per the manufacturer's instructions and incubated overnight at 4° C. with an intracellular antibody cocktail comprised of antibodies specific for the transcription factors (i.e., Foxp3-BV421, HELIOS-PE-Cy7, EOS-PE, IKAROS-PECF594, AIOLOS-AF647). Cells were washed twice with Perm/Wash buffer and resuspended in flow cytometry staining buffer (Thermo Fisher) prior to acquisition. Sample acquisition and analysis was performed using a BD LSRFortessa (BD Biosciences) flow cytometer. Single-stain controls for each fluorochrome were prepared using UltraComp eBead Compensation Beads (Thermo Fisher). Data were analyzed using FlowJo version 10 and GraphPad Prism Software.
Table D-1 lists the maximum observed degradation of the IKZF1 protein and IKZF3 protein as measured in the Human CD8^+ T Cell Reprogramming assay. The results in Table D-1 were rounded to two digits. In the Human CD8^+ T Cell Reprogramming assay, a value of 100% indicated no detectable protein remaining or complete degradation of the protein; and a value of 0% indicated no detectable degradation of the protein by the test compound.

[2] = target: IKZF2 Helios (Homo sapiens, UniProt Q96SW2+Q9UKS7); test: Jurkat Cellular Degradation Assay (IKZF2 Helios); type: cell-based; parameters: endogenous in cells; conditions: Jurkat cells, 72 h; for DC50: concentration reducing protein level by 50% vs DMSO; for Dmax: human, 100% = no detectable protein remaining, read-out: IKZF2 Helios max % deg. observed
Chain of IKZF2 Helios (Q9UKS7 whole entry): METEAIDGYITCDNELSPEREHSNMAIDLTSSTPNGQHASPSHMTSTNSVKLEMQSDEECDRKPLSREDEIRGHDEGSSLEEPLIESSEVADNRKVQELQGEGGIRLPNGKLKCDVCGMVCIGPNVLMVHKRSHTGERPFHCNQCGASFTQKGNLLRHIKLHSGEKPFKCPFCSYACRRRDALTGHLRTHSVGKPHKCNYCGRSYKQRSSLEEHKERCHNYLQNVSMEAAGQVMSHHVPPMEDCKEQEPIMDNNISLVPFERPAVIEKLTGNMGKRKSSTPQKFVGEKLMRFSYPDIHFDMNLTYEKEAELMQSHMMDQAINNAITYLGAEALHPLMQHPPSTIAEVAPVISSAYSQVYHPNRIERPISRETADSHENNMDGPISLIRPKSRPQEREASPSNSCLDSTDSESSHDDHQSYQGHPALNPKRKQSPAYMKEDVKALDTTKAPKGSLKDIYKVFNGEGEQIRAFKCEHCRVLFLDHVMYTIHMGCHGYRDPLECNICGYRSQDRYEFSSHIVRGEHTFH
Chain of IKZF2 Helios (Q96SW2 whole entry): as the sequence (Q96SW2 whole entry) above
Chain of IKZF2 Helios (Q16531 whole entry partner): as the sequence (Q16531 whole entry partner) above
Method: Jurkat cells were plated at 80,000 cells/well in 40 μL RPMI+10% FBS in a 384-well cell culture plate prior to using acoustic dispensing technology for adding a compound of interest. Cell cultures were incubated for 72 h at 37° C. and 5% CO2. In order to facilitate analysis, cell cultures were spun down at 200 rpm for 5 min and the supernatant was discarded. After shaking the plate to dislodge the cell pellet, cells were resuspended in 50 μL of Fixation Buffer (eBioscience FoxP3 buffer set 00-5523-00) for 60 min at room temperature. After centrifuging and discarding the supernatant, cells were permeabilized with 50 μL of Permeabilization buffer (eBioscience FoxP3 buffer set 00-5523-00) for 10 min at room temperature. Following permeabilization, cells were spun down and the supernatant was replaced with 20 μL fluorescently labelled antibodies against Helios, Ikaros and Aiolos or corresponding Isotype controls in 1× Permeabilization buffer (Ikaros-Alexa488 [Biolegend, Cat #368408, 1:50], Helios-PE [CST, Cat #29360, 1:50], Aiolos-Alexa647 [Biolegend, Cat #371106 Biolegend, 1:25]) and staining reactions were incubated for 1 h at room temperature while protected from light. Subsequently, 30 μL of 1× Permeabilization buffer was added prior to centrifuging the cells and discarding the supernatant. Stained cells were resuspended in 25 μL of flow cytometry staining buffer [PBS+0.2% bovine serum albumin (BSA)] and analyzed using an Intellicyt Ique Plus flow cytometer.
Table A-1 lists the maximum observed degradation of the IKZF1 protein, IKZF2 protein, and IKZF3 protein as measured in the Jurkat Cellular Degradation assay. The results in Table A-I were rounded to two digits. In the Jurkat Cellular Degradation assay, a value of 100% indicated no detectable protein remaining or complete degradation of the protein; and a value of 0% indicated no detectable degradation of the protein by the test compound.

[3] = human PBMC, CD8+ T cells, 24 hours, read-out: Maximum Observed Degradation IKZF1 Ikaros
[4] = human, 24 h, Table D-1, read-out: decreased the level of IKZF1 (Ikaros)

Row | SMILES | Dmax [1, 3] [%] | Dmax [1, 4] [%] | DC50 [2] [nM] | Dmax [2] [%] | DC50 ([1]; human PBMC, CD8+ T cells, 24 hours, concentration reducing protein level by 50% vs DMSO) [nM] | Dmax ([1]; human, 24 h, Table E comparison, from Table D-1, read-out: IKZF1 Ikaros max % deg. observed) [%]
1 | O=C1CCC(N2Cc3c(ccc(-c4cc(CN5CC(c6ccccc6)C5)ccn4)c3F)C2=O)C(=O)N1 (stereo not shown) [Comparative Compound A, 3-(4-fluoro-1-oxo-5-(4-((3-phenylazetidin-1-yl)methyl)pyridin-2-yl)isoindolin-2-yl) piperidine-2,6-dione] | 20 | ≤ 20 | 2.9 |  |  | 
2 | Nc1nc(-c2ccc3c(c2)CN(C2CCC(=O)NC2=O)C3=O)ccc1CN1CC2(CCC2)C1 (stereo not shown) [Comparative Compound B, 3-(5-(5-((2-azaspiro[3.3]heptan-2-yl)methyl)-6-aminopyridin-2-yl)-1-oxoisoindolin-2-yl) piperidine-2,6-dione] | 11 | ≤ 20 | 8 | 90 |  | 
3 | Nc1nc(-c2ccc3c(c2F)CN(C2CCC(=O)NC2=O)C3=O)ccc1CN1CC2(CCCOC2)C1 (stereo not shown) [Example 1, 3-(5-(5-((6-oxa-2-azaspiro[3.5]nonan-2-yl)methyl)-6-aminopyridin-2-yl)-4-fluoro-1-oxoisoindolin-2-yl) piperidine-2,6-dione] | 64 to 65 | 64 to 65 | 8.5 | 91 | 29 to 43 | 64 to 65
